Reference: the supplement of paper PMC10307832

How the values were obtained:
Assay in all cases: relative viability (nuclei count vs DMSO), 5 days (fraction); higher = more cells survive
Entinostat + Bortezomib = compound: Nc1ccccc1NC(=O)c1ccc(CNC(=O)OCc2cccnc2)cc1 [Entinostat] + CC(C)C[C@H](NC(=O)[C@H](Cc1ccccc1)NC(=O)c1cnccn1)B(O)O [Bortezomib] (partner 0.002 µM)
In short: (§1)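 Lung cancer cell lines in 1536-well plates got either a single drug or a fixed anchor-drug dose together with five library-drug doses (not always all listed) in √10 steps, by pin tool, on the day after seeding. Nuclei were counted after 5 days, and relative viability is the treated-to-vehicle ratio of nuclei counts. Values are medians of duplicate plates.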

SGI-1776 + Foretinib = compound: CN1CCC(CNc2ccc3ncc(-c4cccc(OC(F)(F)F)c4)n3n2)CC1 [SGI-1776] + COc1cc2c(Oc3ccc(NC(=O)C4(C(=O)Nc5ccc(F)cc5)CC4)cc3F)ccnc2cc1OCCCN1CCOCC1 [Foretinib] (partner 0.25 µM)
In short: as §1

[1] = compound: C1COCCN1C2=NC(=NC3=C2OC4=C3C=CC=N4)C5=CC(=CC=C5)NC(=O)C6=CN=C(C=C6)N + COc1cc2c(Oc3ccc(NC(=O)C4(C(=O)Nc5ccc(F)cc5)CC4)cc3F)ccnc2cc1OCCCN1CCOCC1 [Foretinib] (partner 0.25 µM)
In short: as §1

Entinostat + Luminespib = compound: Nc1ccccc1NC(=O)c1ccc(CNC(=O)OCc2cccnc2)cc1 [Entinostat] + CCNC(=O)c1noc(-c2cc(C(C)C)c(O)cc2O)c1-c1ccc(CN2CCOCC2)cc1 [Luminespib] (partner 0.01 µM)
In short: as §1

Cell Line | relative viability (Entinostat + Bortezomib; first compound 0.02 µM) | relative viability (Entinostat + Bortezomib; first compound 0.06325 µM) | relative viability (Entinostat + Bortezomib; first compound 0.2 µM) | relative viability (Entinostat + Bortezomib; first compound 0.6325 µM) | relative viability (Entinostat + Bortezomib; first compound 2 µM) | relative viability (SGI-1776 + Foretinib; first compound 0.08 µM) | relative viability (SGI-1776 + Foretinib; first compound 0.8 µM) | relative viability (SGI-1776 + Foretinib; first compound 2.53 µM) | relative viability (SGI-1776 + Foretinib; first compound 8 µM) | relative viability ([1]; first compound 0.02 µM) | relative viability ([1]; first compound 0.06325 µM) | relative viability ([1]; first compound 0.2 µM) | relative viability ([1]; first compound 0.6325 µM) | relative viability ([1]; first compound 2 µM) | relative viability (Entinostat + Luminespib; first compound 0.02 µM) | relative viability (Entinostat + Luminespib; first compound 0.06325 µM) | relative viability (Entinostat + Luminespib; first compound 0.2 µM) | relative viability (Entinostat + Luminespib; first compound 0.6325 µM) | relative viability (Entinostat + Luminespib; first compound 2 µM)
LCLC-97TM1 | 0.69 | 0.912 | 0.912 | 0.355 | 0.128 | 0.932 | 0.952 | 0.945 | 0.829 | 0.974 | 0.964 | 0.931 | 1.04 | 0.825 | 0.939 | 0.798 | 0.695 | 0.808 | 0.491
NCI-H520 | 0.602 | 0.667 | 0.558 | 0.195 | 0.161 | 0.826 | 0.895 | 0.783 | 0.51 | 0.839 | 0.742 | 0.669 | 0.798 | 0.469 | 0.192 | 0.225 | 0.227 | 0.281 | 0.228
NCI-H1755 | 0.932 | 0.956 | 0.9 | 0.534 | 0.321 | 0.949 | 0.931 | 0.881 | 0.854 | 0.902 | 0.94 | 0.871 | 0.805 | 0.622 | 0.483 | 0.459 | 0.678 | 0.528 | 0.415
EPLC-272H | 0.889 | 0.848 | 0.879 | 0.299 | 0.204 | 0.82 | 0.66 | 0.768 | 0.528 | 0.648 | 0.776 | 0.66 | 0.542 | 0.476 | 0.209 | 0.187 | 0.31 | 0.262 | 0.264
NCI-H2228 | 0.815 | 0.831 | 1.05 | 0.462 | 0.204 | 0.889 | 0.613 | 0.803 | 0.446 | 0.911 | 0.855 | 1 | 0.836 | 0.446 | 0.187 | 0.132 | 0.135 | 0.184 | 0.102
